In ChEMBL document CHEMBL5136996, “Semisynthesis and Non-Small-Cell Lung Cancer Cytotoxicity Evaluation of Germacrane-Type Sesquiterpene Lactones from Elephantopus scaber” (J Nat Prod, 2022):
Active and inactive are the calls of the source. The calls are words filed in the database; no cut-off is given here.

How the values were obtained:
NCI-H460 = assay: Cytotoxicity against human NCI-H460 cells assessed as reduction in cell viability incubated for 48 hrs by MTT assay; format: functional, cell-based; settings: NCI-H460, 48 h
A549 [1] = assay: Cytotoxicity against human A549 cells assessed as reduction in cell viability incubated for 48 hrs by MTT assay; format: functional, cell-based; settings: A549, 48 h
A549 [2] = assay: Induction of apoptosis in human A549 cells assessed as late apoptotic cells at 10 uM incubated for 48 hrs by AnnexinV-FITC/PI staining based flow cytometry (reference value: 1.58 to 2.23%); format: functional
A549 [3] = assay: Induction of apoptosis in human A549 cells assessed as necrotic cells at 10 uM incubated for 48 hrs by AnnexinV-FITC/PI staining based flow cytometry (reference value: 2.23 to 4.25%); format: functional
A549 [4] = assay: Induction of apoptosis in human A549 cells assessed as early apoptotic cells at 3 uM incubated for 48 hrs by AnnexinV-FITC/PI staining based flow cytometry (reference value: 2.07 to 3.24%); format: functional
A549 [5] = assay: Induction of apoptosis in human A549 cells assessed as early apoptotic cells at 10 uM incubated for 48 hrs by AnnexinV-FITC/PI staining based flow cytometry (reference value: 2.07 to 3.24%); format: functional
A549 [6] = assay: Induction of intracellular ROS generation in human A549 cells incubated for 48 hrs by H2DCF-DA staining based flow cytometry; format: functional, cell-based; settings: dose 3-10 µM, DDE = dose-dependent effect
A549 [7] = assay: Induction of apoptosis in human A549 cells assessed as increase in cleaved caspase-9 expression level at 3 to 10 uM incubated for 48 hrs by western blot analysis; format: functional, cell-based; settings: dose 3-10 µM
A549 [8] = assay: Induction of cell cycle arrest in human A549 cells assessed as accumulation of cells at G2/M phase incubated for 48 hrs by PI staining based flow cytometry (reference value: 9.7 to 17.2%); format: functional
A549 [9] = assay: Induction of apoptosis in human A549 cells assessed as increase in cleaved caspase-3 expression level at 3 to 10 uM incubated for 48 hrs by western blot analysis; format: functional, cell-based; settings: dose 3-10 µM
A549 [10] = assay: Induction of apoptosis in human A549 cells assessed as viable cells at 3 uM incubated for 48 hrs by AnnexinV-FITC/PI staining based flow cytometry (reference value: 91.5 to 92.9%); format: functional; settings: read-out: Activity
[11] = Cytotoxicity against rat Primary hepatocytes assessed as cell viability at 25 uM incubated for 12 hrs; format: toxicity, cell-based, Hepatocyte; settings: read-out: Activity
A549 [12] = assay: Induction of apoptosis in human A549 cells assessed as decrease in mitochondrial membrane potential by measuring reduction in ratio of red to green fluorescence intensity at 3 to 10 uM incubated for 48 hrs by JC-1 staining based flow cytometry; format: functional, cell-based; settings: dose 3-10 µM
A549 [13] = assay: Induction of apoptosis in human A549 cells assessed as necrotic cells at 3 uM incubated for 48 hrs by AnnexinV-FITC/PI staining based flow cytometry (reference value: 2.23 to 4.25%); format: functional
A549 [14] = assay: Induction of apoptosis in human A549 cells assessed as late apoptotic cells at 3 uM incubated for 48 hrs by AnnexinV-FITC/PI staining based flow cytometry (reference value: 1.58 to 2.23%); format: functional
A549 [15] = assay: Induction of apoptosis in human A549 cells assessed as viable cells at 10 uM incubated for 48 hrs by AnnexinV-FITC/PI staining based flow cytometry (reference value: 91.5 to 92.9%); format: functional; settings: read-out: Activity

C=C1C(=O)O[C@H]2CC3=C[C@H](C/C(C)=C/[C@@H](OC(=O)CCCC(=O)O[C@@H]4/C=C(\C)C[C@H]5C=C(C[C@@H]6OC(=O)C(=C)[C@H]64)C(=O)O5)[C@H]12)OC3=O
IC50 (NCI-H460): > 10 µM | IC50 (A549 [1]): 5.6 µM

C=C1C(=O)O[C@@H]2C3O[C@]3(C)CC/C=C(\C)CC[C@@H]12 (stereo partly specified)
IC50 (NCI-H460): 9.6 µM | IC50 (A549 [1]): > 10 µM

C=C1C(=O)O[C@H]2CC3=C[C@H](C/C(C)=C/[C@@H](OC(=O)c4ccncc4)[C@H]12)OC3=O
IC50 (NCI-H460): 5.6 µM | IC50 (A549 [1]): > 10 µM

C=C1C(=O)O[C@H]2CC3=C[C@H](C/C(C)=C/[C@@H](OC(=O)/C=C\c4ccc5c(c4)OCO5)[C@H]12)OC3=O
IC50 (NCI-H460): > 10 µM | IC50 (A549 [1]): 6.1 µM

C=C1C(=O)O[C@H]2CC3=C[C@H](C/C(C)=C/[C@@H](OC(=O)CCC(=O)O[C@@H]4/C=C(\C)C[C@H]5C=C(C[C@@H]6OC(=O)C(=C)[C@H]64)C(=O)O5)[C@H]12)OC3=O
IC50 (NCI-H460): > 10 µM | IC50 (A549 [1]): > 10 µM

C=C1C(=O)O[C@H]2CC3=C[C@H](C/C(C)=C/[C@@H](OC(=O)c4ccc(-c5ccccc5)cc4)[C@H]12)OC3=O
IC50 (NCI-H460): 3.5 µM | IC50 (A549 [1]): 4.6 µM

C=C1C(=O)O[C@H]2CC3=C[C@H](C/C(C)=C/[C@@H](OC(=O)C45CCC(C)(C(=O)O4)C5(C)C)[C@H]12)OC3=O
IC50 (NCI-H460): 2 µM | IC50 (A549 [1]): 3.4 µM

C=C1C(=O)O[C@H]2CC3=C[C@H](C/C(C)=C/[C@@H](OC(=O)/C=C/c4cccs4)[C@H]12)OC3=O
Activity (A549 [2]): 23.9% | Activity (A549 [3]): 10.6% | Activity (A549 [4]): 14.8% | IC50 (NCI-H460): 2.9 µM | Activity (A549 [5]): 27.3% | Activity (A549 [6]): Dde | IC50 (A549 [1]): 4.3 µM | Activity (A549 [7]): Active | Activity (A549 [8]): 32.6% | Activity (A549 [9]): Active | viability at 3 µM (A549 [10]): 83.2% | viability at 12 h, 25 µM [11]: 96.7% | Activity (A549 [12]): Active | Activity (A549 [13]): 0.53% | Activity (A549 [14]): 1.45% | viability at 10 µM (A549 [15]): 38.2%

C=C1C(=O)O[C@H]2CC3=C[C@H](C/C(C)=C/[C@@H](OC(=O)/C=C/c4cccc(OC)c4)[C@H]12)OC3=O
IC50 (NCI-H460): > 10 µM | IC50 (A549 [1]): 6.2 µM

CO[C@H]1C(=O)O[C@H]2CC3=C[C@H](C/C(C)=C/[C@@H](O)[C@@H]21)OC3=O
IC50 (NCI-H460): > 10 µM | IC50 (A549 [1]): > 10 µM

C=C1C(=O)O[C@H]2CC3=C[C@H](C/C(C)=C/[C@@H](OC(=O)C4CC4)[C@H]12)OC3=O
IC50 (NCI-H460): 3 µM | IC50 (A549 [1]): 3.2 µM

C=C1C(=O)O[C@@H]2/C=C(\C)C[C@H]3C=C(C[C@H](OC(=O)/C(C)=C\C)[C@@H]12)C(=O)O3
IC50 (NCI-H460): > 10 µM | IC50 (A549 [1]): > 10 µM

C=C1C(=O)O[C@H]2CC3=C[C@H](C/C(C)=C/[C@@H](OC(=O)c4ccc([N+](=O)[O-])cc4)[C@H]12)OC3=O
IC50 (NCI-H460): > 10 µM | IC50 (A549 [1]): > 10 µM

C=C1C(=O)O[C@H]2CC3=C[C@H](C/C(C)=C/[C@@H](OC(=O)CC(C)C)[C@H]12)OC3=O
IC50 (NCI-H460): 3.8 µM | IC50 (A549 [1]): 2.5 µM

C=C1C(=O)O[C@H]2CC3=C[C@H](C/C(C)=C/[C@@H](OC(=O)CCCCCCC(=O)O[C@@H]4/C=C(\C)C[C@H]5C=C(C[C@@H]6OC(=O)C(=C)[C@H]64)C(=O)O5)[C@H]12)OC3=O
Activity (A549 [2]): 44.1% | Activity (A549 [3]): 10.4% | Activity (A549 [4]): 35.5% | IC50 (NCI-H460): 3.2 µM | Activity (A549 [5]): 30.9% | Activity (A549 [6]): Dde | IC50 (A549 [1]): 0.7 µM | Activity (A549 [7]): Active | Activity (A549 [8]): 62.4% | Activity (A549 [9]): Active | viability at 3 µM (A549 [10]): 63.7% | viability at 12 h, 25 µM [11]: 59.2% | Activity (A549 [12]): Active | Activity (A549 [13]): 0.14% | Activity (A549 [14]): 0.7% | viability at 10 µM (A549 [15]): 14.6%

C=C1C(=O)O[C@H]2CC3=C[C@H](C/C(C)=C/[C@@H](OC(=O)C(C)(C)CC)[C@H]12)OC3=O
IC50 (NCI-H460): 6.1 µM | IC50 (A549 [1]): 2.2 µM

C=C1C(=O)O[C@H]2CC3=C[C@H](C/C(C)=C/[C@@H](OC(=O)/C=C/c4ccc(C(F)(F)F)cc4)[C@H]12)OC3=O
IC50 (NCI-H460): 1.4 µM | IC50 (A549 [1]): 5.9 µM

C=C1C(=O)O[C@H]2CC3=C[C@H](C/C(C)=C/[C@@H](OC(=O)c4ccc(C(F)(F)F)cc4)[C@H]12)OC3=O
IC50 (NCI-H460): > 10 µM | IC50 (A549 [1]): > 10 µM

C=C1C(=O)O[C@H]2CC3=C[C@H](C/C(C)=C/[C@@H](OC(=O)CCl)[C@H]12)OC3=O
IC50 (NCI-H460): > 10 µM | IC50 (A549 [1]): > 10 µM

C=C1C(=O)O[C@H]2CC3=C[C@H](C/C(C)=C/[C@@H](OC(=O)c4ccc(C(C)=O)cc4)[C@H]12)OC3=O
IC50 (NCI-H460): 2.2 µM | IC50 (A549 [1]): 2.3 µM

C=C1C(=O)O[C@H]2CC3=C[C@H](C/C(C)=C/[C@@H](OC(=O)c4ccc(C(=O)O[C@@H]5/C=C(\C)C[C@H]6C=C(C[C@@H]7OC(=O)C(=C)[C@H]75)C(=O)O6)s4)[C@H]12)OC3=O
IC50 (NCI-H460): 5.8 µM | IC50 (A549 [1]): 3.6 µM

C=C1C(=O)O[C@H]2CC3=C[C@H](C/C(C)=C/[C@@H](OC(=O)/C=C/c4ccncc4)[C@H]12)OC3=O
IC50 (NCI-H460): 2.1 µM | IC50 (A549 [1]): 4 µM

C=C1C(=O)O[C@H]2CC3=C[C@H](C/C(C)=C/[C@@H](OC(=O)CCCCBr)[C@H]12)OC3=O
IC50 (NCI-H460): > 10 µM | IC50 (A549 [1]): > 10 µM

C=C1C(=O)O[C@H]2CC3=C[C@H](C/C(C)=C/[C@@H](OC(=O)CCCCC)[C@H]12)OC3=O
IC50 (NCI-H460): 5.9 µM | IC50 (A549 [1]): > 10 µM

C=C1C(=O)O[C@H]2CC3=C[C@H](C/C(C)=C/[C@@H](OC(=O)CCSSCCC(=O)O[C@@H]4/C=C(\C)C[C@H]5C=C(C[C@@H]6OC(=O)C(=C)[C@H]64)C(=O)O5)[C@H]12)OC3=O
IC50 (NCI-H460): 7.8 µM | IC50 (A549 [1]): 3.1 µM

C=C1C(=O)O[C@H]2CC3=C[C@H](C/C(C)=C/[C@@H](OC(=O)CCCCC(=O)O[C@@H]4/C=C(\C)C[C@H]5C=C(C[C@@H]6OC(=O)C(=C)[C@H]64)C(=O)O5)[C@H]12)OC3=O
IC50 (NCI-H460): 8.1 µM | IC50 (A549 [1]): 2.1 µM

C=C1C(=O)O[C@H]2CC3=C[C@H](C/C(C)=C/[C@@H](OC(=O)C4CCC(F)(F)CC4)[C@H]12)OC3=O
IC50 (NCI-H460): > 10 µM | IC50 (A549 [1]): 6.4 µM

C=C1C(=O)O[C@H]2CC3=C[C@H](C/C(C)=C/[C@@H](OC(=O)c4ccc(C(=O)O[C@@H]5/C=C(\C)C[C@H]6C=C(C[C@@H]7OC(=O)C(=C)[C@H]75)C(=O)O6)cc4)[C@H]12)OC3=O
IC50 (NCI-H460): 0.7 µM | IC50 (A549 [1]): 1.5 µM

C=C1C(=O)O[C@H]2CC3=C[C@H](C/C(C)=C/[C@@H](OC(=O)C4(NC(=O)OCc5ccccc5)CC4)[C@H]12)OC3=O
IC50 (NCI-H460): 3 µM | IC50 (A549 [1]): 5.8 µM

C=C1C(=O)O[C@H]2CC3=C[C@H](C/C(C)=C/[C@@H](O)[C@H]12)OC3=O
IC50 (NCI-H460): > 10 µM | IC50 (A549 [1]): > 10 µM

C=C1C(=O)O[C@H]2CC3=C[C@H](C/C(C)=C/[C@@H](OC(=O)/C=C/c4ccc5c(c4)OCO5)[C@H]12)OC3=O
IC50 (NCI-H460): 9.3 µM | IC50 (A549 [1]): 4.6 µM

C=C1C(=O)O[C@H]2CC3=C[C@H](C/C(C)=C/[C@@H](OC(=O)/C=C/c4ccccc4)[C@H]12)OC3=O
IC50 (NCI-H460): > 10 µM | IC50 (A549 [1]): 4.8 µM

C=C1C(=O)O[C@H]2CC3=C[C@H](C/C(C)=C/[C@@H](OC(=O)/C=C/c4ccc(N(C)C)cc4)[C@H]12)OC3=O
IC50 (NCI-H460): 1.3 µM | IC50 (A549 [1]): > 10 µM

C=C1C(=O)O[C@H]2CC3=C[C@H](C/C(C)=C/[C@@H](OC(=O)CC4CCCCC4)[C@H]12)OC3=O
IC50 (NCI-H460): 2 µM | IC50 (A549 [1]): 6.9 µM
